Reference: patent US20080070938A1, “Medicinal composition for mitigating blood lipid or lowering blood homocysteine” (SANKYO COMPANY, LIMITED, priority 2002, published 2008)

Key:
Male Beagle dogs [1] = test: Test Example 1: serum lipids (total cholesterol, LDL, triglyceride) after 11 days of oral dosing; format: in vivo; conditions: oral once daily, Pyridoxine hydrochloride 50 mg/Kg, relative value, pre-treatment average = 100, mean of 5 dogs
Description: Pravastatin sodium manufactured at Sankyo Co., Ltd. was used. Simvastatin and atorvastatin synthesized at Chemtech Labo., Inc. were used.
The administration period was 11 days.
Approximately 10 mL of blood was collected from the cephalic vein of each dog on -14 and -7 day (the 1st and the 2nd week prior to administration) as well as 4, 8, and 12 days after administration.
The collected blood was placed in a test tube and allowed to stand at room temperature for 30 min to 1 hour. Then the blood was centrifuged (approximately 1,600 g, for 10 min) and the resultant serum obtained was used for assays.
Total cholesterol content was assayed by enzymatic assay method, while HDL, LDL, and triglyceride were determined by homogeneous method, chemically modified method, and enzymatic techniques, respectively. Clinical Laboratory System (TBA-120FR, Toshiba Medical Systems Corporation) was used in all of these determinations.
Relative values of various levels of serum lipids in animals treated with each dose of pyridoxine hydrochloride, pravastatin sodium, simvastatin, or atorvastatin calcium alone as well as the medicinal compositions described above were calculated against each converted average value calculated from that determined 2 weeks and 1 week before the treatment into 100.

Male Beagle dogs [2] = test: Test Example 2: blood homocysteine levels (HPLC) after 11 days of oral dosing; conditions: oral once daily, relative value, pre-treatment average = 100, mean of 5 dogs
Description: The required amount of the test substance calculated based on the body weight of the test animals was weighed and put in gelatin capsules (TORPAC Inc., ½ oz). After filling up, the capsules were placed in a box divided up for every animal and stored under freezing until use.
The capsules filled up with the test substance were orally administered to the test animals once daily via an oral gavage between 9:00-12:30. The test animals were fasted for 2-3 hrs prior to each administration. The administration period was 11 days.
Approximately 10 mL of blood was collected from the cephalic vein of each dog on -14 and -7 day (the 1st and the 2nd week prior to administration) as well as 4, 8, and 12 days after administration. The animals were fasted for approximately 18 hrs before collection of the blood.
Blood homocysteine levels were determined by HPLC method used conventionally in current clinical examination.
Relative values of blood homocysteine levels in animals treated with each dose of atorvastatin calcium or pyridoxine hydrochloride alone as well as the medicinal compositions of atorvastatin calcium plus pyridoxine hydrochloride were calculated against each converted average value calculated from that determined 2 weeks and 1 week before the treatment into 100.
The values indicate average results calculated from 5 dogs per a group.

[3] = tested on: patients with cardiovascular diseases; conditions: 6 successive weeks; patients with cardiovascular diseases (3 atorvastatin, 4 simvastatin); cited from earlier work
patients = conditions: treated for one year; 20,705 patients; placebo control group 1.9% decrease; cited from earlier work
[4] = 4 Days after treatment, Atorvastatin calcium 2 mg/Kg
[5] = 8 Days after treatment, Atorvastatin calcium 2 mg/Kg
[6] = 12 Days after treatment, Atorvastatin calcium 2 mg/Kg
[7] = 4 Days after treatment, Atorvastatin calcium 2 mg/Kg and/or Pyridoxine hydrochloride 5 mg/Kg
[8] = 8 Days after treatment, Atorvastatin calcium 2 mg/Kg and/or Pyridoxine hydrochloride 5 mg/Kg
[9] = 12 Days after treatment, Atorvastatin calcium 2 mg/Kg and/or Pyridoxine hydrochloride 5 mg/Kg
[10] = 4 Days after treatment, Pravastatin sodium 2 mg/Kg
[11] = 8 Days after treatment, Pravastatin sodium 2 mg/Kg
[12] = 12 Days after treatment, Pravastatin sodium 2 mg/Kg
[13] = 4 Days after treatment, Simvastatin 1 mg/Kg
[14] = 8 Days after treatment, Simvastatin 1 mg/Kg
[15] = 12 Days after treatment, Simvastatin 1 mg/Kg

SMILES: CC(C)c1c(C(=O)Nc2ccccc2)c(-c2ccccc2)c(-c2ccc(F)cc2)n1CC[C@H](O)C[C@@H](O)CC(=O)O [Atorvastatin calcium, (3R,5S)-7-[2-(4-fluorophenyl)-5-(1-methylethyl)-3-phenyl-4-phenylaminocarbonyl-1H-pyrrol-1-yl]-3,5-dihydroxyheptanoic acid]
- Percent changes of blood LDL levels (Male Beagle dogs [1]; [4]): 82.4%
- Percent changes of blood triglyceride levels (Male Beagle dogs [1]; [4]): 77.2%
- Percent changes of blood LDL levels (Male Beagle dogs [1]; [5]): 82.1%
- Percent changes of blood triglyceride levels (Male Beagle dogs [1]; [5]): 86.3%
- Percent changes of blood LDL levels (Male Beagle dogs [1]; [6]): 83.6%
- Percent changes of blood triglyceride levels (Male Beagle dogs [1]; [6]): 86.4%
- Percent changes of blood homocysteine levels (Male Beagle dogs [2]; [7]): 107.2%
- Percent changes of blood homocysteine levels (Male Beagle dogs [2]; [8]): 106.3%
- Percent changes of blood homocysteine levels (Male Beagle dogs [2]; [9]): 106.9%

SMILES: CC[C@H](C)C(=O)O[C@H]1C[C@H](O)C=C2C=C[C@H](C)[C@H](CC[C@@H](O)C[C@@H](O)CC(=O)O)[C@H]21 [Pravastatin sodium, (+)-(3R,5R)-3,5-dihydroxy-7-[(1S,2S,6S,8S,8aR)-6-hydroxy-2-methyl-8-[(S)-2-methylbutyryloxy]-1,2,6,7,8,8a-hexahydro-1-naphtyl]heptanoic acid]
- Percent changes of blood LDL levels (Male Beagle dogs [1]; [10]): 92.6%
- Percent changes of blood LDL levels (Male Beagle dogs [1]; [11]): 91.6%
- Percent changes of blood LDL levels (Male Beagle dogs [1]; [12]): 90.4%

SMILES: Cc1ncc(CO)c(CO)c1O.Cl [Pyridoxine hydrochloride]
- Percent changes of blood LDL levels (Male Beagle dogs [1]; [4]): 101.7%
- Percent changes of blood triglyceride levels (Male Beagle dogs [1]; [4]): 83.8%
- Percent changes of blood LDL levels (Male Beagle dogs [1]; [10]): 101.7%
- Percent changes of blood LDL levels (Male Beagle dogs [1]; [13]): 101.7%
- Percent changes of blood total cholesterol levels (Male Beagle dogs [1]; [13]): 98.0%
- Percent changes of blood triglyceride levels (Male Beagle dogs [1]; [13]): 83.8%
- Percent changes of blood LDL levels (Male Beagle dogs [1]; [5]): 95.0%
- Percent changes of blood triglyceride levels (Male Beagle dogs [1]; [5]): 86.7%
- Percent changes of blood LDL levels (Male Beagle dogs [1]; [11]): 95.0%
- Percent changes of blood LDL levels (Male Beagle dogs [1]; [14]): 95.0%
- Percent changes of blood total cholesterol levels (Male Beagle dogs [1]; [14]): 93.3%
- Percent changes of blood triglyceride levels (Male Beagle dogs [1]; [14]): 86.7%
- Percent changes of blood LDL levels (Male Beagle dogs [1]; [6]): 91.4%
- Percent changes of blood triglyceride levels (Male Beagle dogs [1]; [6]): 81.2%
- Percent changes of blood LDL levels (Male Beagle dogs [1]; [12]): 91.4%
- Percent changes of blood LDL levels (Male Beagle dogs [1]; [15]): 91.4%
- Percent changes of blood total cholesterol levels (Male Beagle dogs [1]; [15]): 90.5%
- Percent changes of blood triglyceride levels (Male Beagle dogs [1]; [15]): 81.2%
- Percent changes of blood homocysteine levels (Male Beagle dogs [2]; [7]): 100.0%
- Percent changes of blood homocysteine levels (Male Beagle dogs [2]; 4 Days after treatment, Pyridoxine hydrochloride 50 mg/Kg alone or with Atorvastatin calcium 2 mg/Kg): 101.4%
- Percent changes of blood homocysteine levels (Male Beagle dogs [2]; [8]): 116.0%
- Percent changes of blood homocysteine levels (Male Beagle dogs [2]; 8 Days after treatment, Pyridoxine hydrochloride 50 mg/Kg alone or with Atorvastatin calcium 2 mg/Kg): 111.5%
- Percent changes of blood homocysteine levels (Male Beagle dogs [2]; [9]): 109.8%
- Percent changes of blood homocysteine levels (Male Beagle dogs [2]; 12 Days after treatment, Pyridoxine hydrochloride 50 mg/Kg alone or with Atorvastatin calcium 2 mg/Kg): 103.0%

SMILES: CCC(C)(C)C(=O)O[C@H]1C[C@@H](C)C=C2C=C[C@H](C)[C@H](CC[C@@H]3C[C@@H](O)CC(=O)O3)[C@H]21 [Simvastatin, (+)-(1S,3R,7S,8S,8aR)-1,2,3,7,8,8a-hexahydro-3,7-dimethyl-8-[2-[(2R,4R)-tetrahydro-4-hydroxy-6-oxo-2H-pyran-2-yl]ethyl]-1-naphthyl 2,2-dimethylbutyrate]
- Percent changes of blood LDL levels (Male Beagle dogs [1]; [13]): 83.9%
- Percent changes of blood total cholesterol levels (Male Beagle dogs [1]; [13]): 94.8%
- Percent changes of blood triglyceride levels (Male Beagle dogs [1]; [13]): 66.4%
- Percent changes of blood LDL levels (Male Beagle dogs [1]; [14]): 90.4%
- Percent changes of blood total cholesterol levels (Male Beagle dogs [1]; [14]): 94.1%
- Percent changes of blood triglyceride levels (Male Beagle dogs [1]; [14]): 85.3%
- Percent changes of blood LDL levels (Male Beagle dogs [1]; [15]): 81.3%
- Percent changes of blood total cholesterol levels (Male Beagle dogs [1]; [15]): 92.4%
- Percent changes of blood triglyceride levels (Male Beagle dogs [1]; [15]): 82.0%
- blood homocysteine levels (in words) [3]: decreased

SMILES: CC(C)c1c(C(=O)Nc2ccccc2)c(-c2ccccc2)c(-c2ccc(F)cc2)n1CC[C@H](O)C[C@@H](O)CC(=O)O [atorvastatin, (3R,5S)-7-[2-(4-fluorophenyl)-5-(1-methylethyl)-3-phenyl-4-phenylaminocarbonyl-1H-pyrrol-1-yl]-3,5-dihydroxyheptanoic acid]
- blood homocysteine levels (in words) [3]: increased

SMILES: CC[C@H](C)C(=O)O[C@H]1C[C@@H](C)C=C2C=C[C@H](C)[C@H](CC[C@@H]3C[C@@H](O)CC(=O)O3)[C@H]21 [lovastatin, (+)-(1S,3R,7S,8S,8aR)-1,2,3,7,8,8a-hexahydro-3,7-dimethyl-8-[2-[(2R,4R)-tetrahydro-4-hydroxy-6-oxo-2H-pyran-2-yl]ethyl]-1-naphth yl(S)-2-methylbutyrate]
- decrease of blood homocysteine levels on average (patients): 3.7%
